{"source": "paper PMC2967600", "about": "(Peptides, 2010)", "key": {"mMC5R": {"target": "mMC5R (Mus musculus, UniProt P41149)", "sequence (P41149 whole entry)": "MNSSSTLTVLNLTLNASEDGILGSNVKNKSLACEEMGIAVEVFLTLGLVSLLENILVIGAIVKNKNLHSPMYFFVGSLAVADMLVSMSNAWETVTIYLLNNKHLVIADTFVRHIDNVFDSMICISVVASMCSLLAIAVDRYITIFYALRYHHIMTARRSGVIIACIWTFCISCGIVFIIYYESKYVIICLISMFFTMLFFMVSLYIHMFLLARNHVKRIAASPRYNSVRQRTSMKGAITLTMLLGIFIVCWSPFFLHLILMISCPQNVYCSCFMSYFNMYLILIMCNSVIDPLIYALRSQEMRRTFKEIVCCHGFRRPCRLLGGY", "assay": "cAMP based functional bioassay", "format": "cell-based", "conditions": "mMC5R EC50, agonist; mean ± SEM; >100000 = no activity at up to 100μM"}, "mMC3R": {"target": "mMC3R (Mus musculus, UniProt P33033)", "sequence (P33033 whole entry)": "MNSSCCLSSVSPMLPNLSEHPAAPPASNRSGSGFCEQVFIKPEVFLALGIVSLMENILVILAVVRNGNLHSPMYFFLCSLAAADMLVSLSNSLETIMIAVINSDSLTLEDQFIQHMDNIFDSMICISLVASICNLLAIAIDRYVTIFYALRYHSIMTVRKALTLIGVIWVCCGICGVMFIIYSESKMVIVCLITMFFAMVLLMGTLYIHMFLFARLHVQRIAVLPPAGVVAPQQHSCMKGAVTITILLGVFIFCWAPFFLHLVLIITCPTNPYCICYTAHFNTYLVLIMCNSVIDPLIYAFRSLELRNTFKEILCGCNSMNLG", "assay": "cAMP based functional bioassay", "format": "cell-based"}, "hMC5R": {"target": "hMC5R (Homo sapiens, UniProt P33032)", "sequence (P33032 whole entry)": "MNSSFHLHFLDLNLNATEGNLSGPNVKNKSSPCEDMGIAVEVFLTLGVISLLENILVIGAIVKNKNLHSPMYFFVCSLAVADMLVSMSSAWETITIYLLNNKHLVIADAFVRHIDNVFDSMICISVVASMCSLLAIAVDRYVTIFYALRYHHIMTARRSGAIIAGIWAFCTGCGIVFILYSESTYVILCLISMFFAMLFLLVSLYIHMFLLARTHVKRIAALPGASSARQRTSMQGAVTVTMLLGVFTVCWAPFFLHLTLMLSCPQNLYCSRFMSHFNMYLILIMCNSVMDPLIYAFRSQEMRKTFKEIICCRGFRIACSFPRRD", "conditions": "Bednarek et al.; cited from earlier work"}, "rat MC5R": {"test_system": "rat MC5R", "conditions": "CHO cells; cited from earlier work"}, "melanocortin receptors": {"test_system": "melanocortin receptors", "conditions": "cited from earlier work"}}, "note": "pEC50: −log10 of the molar value. Ends that are not written are not given here.", "data": [{"substance": "MGHFRWDRF [Peptide 27]", "values": [{"measurement": "pEC50", "setting": "mMC5R", "value": 6.44}, {"measurement": "pEC50", "setting": "mMC3R; mMC3R EC50, agonist, mean ± SEM, >100000 = no activity at up to 100μM", "value": 7.00}]}, {"substance": "HS024", "values": [{"measurement": "functional activity at the hMC5R", "setting": "hMC5R", "value": "full hMC5R agonist"}, {"measurement": "functional activity at the rat MC5R", "setting": "rat MC5R", "value": "full agonist"}]}, {"substance": "Ac-His-Phe-Arg-Trp-NH2", "values": [{"measurement": "stimulation of melanocortin receptors", "setting": "melanocortin receptors", "value": "able to fully stimulate"}]}, {"substance": "YVMGHFRWDR [Peptide 6]", "values": [{"measurement": "selectivity for the mMC3R versus the mMC4R", "setting": "mMC3R; from agonist EC50 values", "value": 18, "unit": "fold"}]}]}
